Source: US20170038365A1, “SMALL MOLECULE INHIBITORS OF 8-OXOGUANINE DNA GLYCOSYLASE-1 (OGG1)” (OREGON HEALTH & SCIENCE UNIVERSITY, priority 2015, published 2017)

How the values were obtained:
OGG1 [1] = molecular target: T1, OGG1 (Homo sapiens, UniProt O15527); assay: OGG1 glycosylase activity on γ-irradiated calf thymus DNA by GC-MS/MS; format: biochemical; details: 0.1 μmol inhibitor
T1 construct: His tag; made in house; host or cells: bacterial culture (LB media, IPTG induction)
Procedure: FIG. 5B is a bar graph of OGG1 glycosylase activity measured on irradiated calf thymus DNA. The number of excised 8-oxo-Gua per 10^6 DNA bases was measured by GC-MS/MS. Graph plots equal the mean of three independent experiments. The uncertainties are standard deviations.
FIG. 5C is a bar graph of OGG1 glycosylase activity measured on irradiated calf thymus DNA. The number of excised FapyGua per 10^6 DNA bases was measured by GC-MS/MS. Graph plots equal the mean of three independent experiments. The uncertainties are standard deviations.
(§1) Hydrazides Inhibit the Glycosylase and Lyase Activities of OGG1. To verify the results of the fluorescence-based assay, gel-based assays were performed to detect OGG1-mediated strand cleavage of an 8-oxo-Gua-containing substrate at eight different inhibitor concentrations (FIG. 4). […] There are at least three possibilities that could account for how these molecules inhibit DNA strand cleavage by OGG1. […] This assay used γ-irradiated calf thymus DNA as a substrate and measured the number of free 8-oxo-Gua and FapyGua in solution released by OGG1. […]
The enzymatic activities of OGG1, NEIL1 and NTH1 were measured using gas chromatography/isotope-dilution tandem mass spectrometry (GC-MS/MS) and calf thymus DNA samples γ-irradiated at 20 Gy as described in Jaruga et al 2008 infra and Reddy et al, 2013 infra. […]

OGG1 [2] = molecular target: T1, OGG1; assay: OGG1 AP lyase activity on AP site-containing substrate (gel); format: biochemical; details: 10 μM compound, compared to no inhibitor control
Procedure: FIG. 5A is a bar graph of OGG1 lyase activity on a substrate containing an AP site. The substrate was incubated without OGG1 (No Enz), with OGG1 (No Inh), or with OGG1+10 μM compound. The top band in each gel corresponds to uncleaved substrate and the bottom band is cleaved product. Mean percent cleavage compared to the no inhibitor control (% Activity) was plotted for three independent experiments. The uncertainties are standard deviations.
as §1
(§2) Gel-based assays were performed by combining 4 μL of 2.5×OGG1 (62.5 nM) with 1 μL 10× inhibitor or buffer. […] Samples were analyzed by electrophoresis on a 15% polyacrylamide gel containing 8 M urea and bands were visualized by a FluorChem M imager (Protein Simple). Band intensities were quantified using the Image Studio Lite Software (LI-COR).

OGG1 [3] = molecular target: T1, OGG1; assay: fluorescence-based OGG1 activity assay (TAMRA/BHQ2 8-oxo-Gua substrate); format: biochemical; details: read-out: IC50 (OGG1 inhibition)
Procedure: The OGG1 activity assay utilized a 17-mer oligodeoxynucleotide that contained an 8-oxo-Gua positioned 6 deoxynucleotides downstream of a 5′-TAMRA fluorophore and a complementary DNA strand that contained a 3′-Black Hole Quencher 2 (BHQ2) (FIG. 1). […] Therefore, inhibitors of OGG1 activity would be expected to result in a weaker fluorescence signal over time compared to a no inhibitor control.
The fluorescence-based assay outlined in FIG. 2A was performed in black, low volume 384-well plates with a final volume of 10 μL per well. […] Plates were incubated for 30 min at 37° C. and TAMRA fluorescence in each well was measured using the Biotek Synergy 4 platereader (Filters=Ex 528/20, Em 600/40. Mirror=Top 570 nm with polarizer). Background-subtracted fluorescence values were calculated for each well and any compound that had ≧40% decrease in fluorescence compared to the no inhibitor control was identified as a hit. […]
Assays to calculate IC50 values of OGG1, NEIL1, and NTH1 were fundamentally similar to the high-throughput screen except that the step for the addition of drug differed and a lower enzyme concentration was used. […] Plates were incubated at 37° C. for 40 min (OGG1), 5 min (NEIL1), and 10 min (NTH1), followed by the measurement of TAMRA fluorescence. […]

OGG1 [4] = molecular target: T1, OGG1; assay: gel-based OGG1 cleavage assay on 8-oxo-Gua-containing substrate; format: biochemical; details: eight inhibitor concentrations 0.008-25 μM
Procedure: FIG. 4A is an image and plot showing a gel-based OGG1 activity assay of compound O8. 8-oxo-Gua-containing substrate was incubated without OGG1 (No Enz), with OGG1 (No Inh), or with OGG1+8 different concentrations (25, 8, 2.5, 0.8, 0.25, 0.08, 0.025, 0.008 μM) of inhibitors. The top band in the gel corresponds to uncleaved substrate and the bottom band is cleaved product. The Y-axis on each graph equals the percent substrate cleavage compared to the no inhibitor control (% Activity). Data points equal the mean of three independent experiments. The uncertainties are standard deviations.
Hydrazides Inhibit the Glycosylase and Lyase Activities of OGG1. To verify the results of the fluorescence-based assay, gel-based assays were performed to detect OGG1-mediated strand cleavage of an 8-oxo-Gua-containing substrate at eight different inhibitor concentrations (FIG. 4). […] This assay used γ-irradiated calf thymus DNA as a substrate and measured the number of free 8-oxo-Gua and FapyGua in solution released by OGG1. […]
as §2

OGG1 [5] = molecular target: T1, OGG1; assay: sodium cyanoborohydride trapping assay of OGG1 and substrate; format: biochemical; details: 10 μM inhibitor, 1 mM NaBH3CN
Procedure: FIG. 6B is an image and bar graph of Sodium cyanoborohydride trapping of OGG1 and substrate. OGG1 was incubated with 8-oxo-Gua- (top gel), AP site- (bottom gel) or U-containing (last lane in each gel) substrates with or without 10 μM inhibitor or INH. Reactions were performed in the presence of 1 mM NaBH3CN. Top band in each gel corresponds to OGG1 trapped to substrate and the bottom band is untrapped substrate. Bands were quantified in each gel and the percent trapped compared to the no inhibitor control was plotted for each compound. Graph plots equal the mean of three independent experiments. The uncertainties are standard deviations.
FIG. 11 is an image and plot of a dose response for O8 trapping. […] Bands were quantified in each gel and the percent trapped compared to the no inhibitor control (% Trapped) was plotted for each compound. […] Mean T50 values in μM±std. dev. were calculated as described above.
To test whether these inhibitors interfere with catalysis, trapping experiments were conducted by carrying out the OGG1 activity assay in the presence of sodium cyanoborohydride. […] These values are slightly higher, but still very close to the calculated IC50 value for this inhibitor (Table 1).
A total of 4 μL of 2.5×OGG1 (125 nM) was mixed with 1 μL of 10× inhibitor. […] Band intensities were quantified using the Image Studio Lite Software. […]

[6] = molecular target: OGG1 (8-oxoguanine DNA glycosylase-1) (Homo sapiens, UniProt O15527 O15527:1-345); assay: EMSA; 50 nM OGG1, 25 nM DNA, on ice 5 min; also trapped by NaBH3CN (FIG. 6B); binding abrogated by ATA, unaffected by the five inhibitors; details: tags: His-tag; expressed in bacteria, Ni-NTA purified; label: 5'-TAMRA; 3'-BHQ2 on complement in fluorescence assay
Chain of OGG1 (8-oxoguanine DNA glycosylase-1) (O15527 whole entry, one chain of several): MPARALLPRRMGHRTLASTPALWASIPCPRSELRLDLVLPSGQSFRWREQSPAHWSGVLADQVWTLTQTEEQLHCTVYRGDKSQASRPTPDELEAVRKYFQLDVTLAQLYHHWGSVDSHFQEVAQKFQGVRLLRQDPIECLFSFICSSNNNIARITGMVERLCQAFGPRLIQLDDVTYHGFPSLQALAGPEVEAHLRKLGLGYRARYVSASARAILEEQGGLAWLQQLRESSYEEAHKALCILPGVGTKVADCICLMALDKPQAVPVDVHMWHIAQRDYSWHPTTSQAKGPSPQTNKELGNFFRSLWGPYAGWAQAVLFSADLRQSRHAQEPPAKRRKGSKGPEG
Procedure: To test whether these inhibitors affected OGG1 binding to an 8-oxo-Gua or AP site, gel shift assays were performed.
All experiments were performed on ice with pre-cooled reagents. […] 5 μL 2× substrate (50 nM) was added, mixed and kept on ice for 5 min. The reaction was quenched with 10 μL ice-cold 30% glycerol and loaded onto a pre-cooled 8% native gel containing 30% glycerol. The gel was run at 4° C. for 1 h (75 V) and bands were visualized by a FluorChem M imager. Band intensities were quantified using the Image Studio Lite Software.

T1 sequence (O15527 whole entry): as the sequence (O15527 whole entry, one chain of several) above

Molecule | OGG1-mediated excision of 8-oxo-Gua and FapyGua (OGG1 [1]) | effect on OGG1-induced cleavage of an AP site (AP lyase activity) (OGG1 [2]) | IC50 (OGG1 [3]) [nM] | other results
Cc1cc(C(=O)NNCc2ccccc2)no1 [ICD, isocarboxazid] | little to no decrease | no effect | – | –
NC(=O)c1cc2ccccc2cc1O [3-hydroxy-2-naphthamide] | – | – | > 50000 | –
NNC(=O)c1cc2ccccc2cc1O [3-hydroxy-2-naphthohudrazide] | – | – | 75 | –
NNC(=O)c1ccncc1 [INH, isoniazid] | little to no decrease | no effect | – | inhibition of OGG1-mediated strand cleavage of 8-oxo-Gua-containing substrate (OGG1 [4]): no inhibition; effect on trapping of OGG1 (Schiff base formation) on 8-oxo-Gua- and AP site-containing substrates (OGG1 [5]): no effect
8-oxo-Gua 17-mer duplex (dsDNA, n is 8-oxo-guanine; complement SEQ:2 appears printed 3'-5' [6 (8-oxo-guanine)]) DNA 1: TCACCGTCGTACGACTC DNA 2: GAGTCGTACGACGGTGA | – | – | – | binding result [6]: binds
